Test results from patent publication US20240150366A1, “4-AMINOQUINAZOLINE COMPOUND” (Astellas Pharma Inc., priority 2021, published 2024).

What was measured:
[1] = tested on: KRAS G12D mutant-positive pancreatic cancer line AsPC-1; experiment: Non-anchorage-dependent cell growth inhibitory activity in AsPC-1 (spheroid 3D culture); format: cell-based; settings: Homo sapiens, ASPC1, 144 h, read-out: IC50, non-anchorage-dependent cell growth inhibition
Method: The non-anchorage-dependent cell growth inhibitory activities of subject compounds were evaluated by spheroid 3D cell culture.
AsPC-1 cells were seeded at 36 μL/well on a low-cell-adhesive round bottom 384-well plate (Prime Surface: from Sumitomo Bakelite) to give 5×10^2 cells per well. The cell culture was performed under the same conditions as in the Test Example 2.
The next day, the subject compounds (6 points having final concentrations in the range of 10 μM to 3.0 nM) and DMSO, which was the solvent for the subject compounds, as a negative control were diluted 100-fold with a fresh medium and were each added at 4 μL per well. After culturing in the presence of 5% CO2 at 37° C. for six days, CellTiter Glo 2.0 (from Promega) was added at 20 μL per well. After stirring with a plate mixer (from FINEPCR) at normal temperature for an hour, the luminescent signals were measured with ARVO X3 (from PerkinElmer).
With the signaling value in treatment with DMSO taken as 0% inhibition and with the signaling value in the medium alone without cells taken as 100% inhibition, the 50% inhibition values (IC50) were calculated by Sigmoid-Emax model nonlinear regression analysis.

[2] = molecular target: KRAS G12D/SOS/c-Raf complex (Homo sapiens (Human), UniProt P01116, G12D); experiment: KRAS G12D/SOS/c-Raf complex formation inhibitory activity (TR-FRET); format: biochemical; settings: human recombinant proteins, 1 hour at room temperature, read-out: IC50, KRAS G12D/SOS/c-Raf complex formation inhibition
Method: Using human recombinant KRAS G12D, SOS and c-Raf proteins, the inhibitory activity of subject compounds on the complex formation of the proteins was examined by a time-resolved fluorescence resonance energy transfer (TR-FRET) method.
Biotinylated AviTag-KRAS G12D (amino acid region of 1-185, GDP) (2.5 μL; 400 nM) and subject compounds dissolved in an assay buffer (50 mM HEPES, 150 mM NaCl, 5 mM MgCl2, 0.05% Tween 20, pH 7.0) were added to a 384-well plate (from Corning) in a liquid volume of 2.5 μL at 40,000 nM to 40 nM. Son of Sevenless (SOS) (amino acid region of 564-1049, 2.5 μL; 1.3 μM) and c-Raf (amino acid region of 51-131) GST (2.5 μL; 130 nM) containing GTP (from Sigma-Aldrich; 2 μM) were added to the plate, and the plate was allowed to stand for 1 hour at room temperature. Then, a mixture liquid (10 μL) of LANCE Ulight-anti-GST (from PerkinElmer; 120 nM) and LANCE Eu-W1024 labeled Streptoavidin (from PerkinElmer; 100 ng/mL) was added, and the 620-nm and 665-nm fluorescence intensities were measured using EnVision 2104 (from PerkinElmer) under the conditions of an excitation wavelength of 337 nm. After standardizing the values with the fluorescence intensity at a reference wavelength of 620 nm, the 50% inhibitory concentrations (IC50) were calculated by Sigmoid-Emax model nonlinear regression analysis with the signaling value in treatment with the solvent taken as 0% inhibition and with the signaling value without the addition of GTP taken as 100% inhibition.

[3] = tested on: ERK phosphorylation (Thr202/Tyr204) in KRAS G12D mutant-positive pancreatic cancer line AsPC-1; experiment: ERK phosphorylation inhibitory activity in AsPC-1 (cell ELISA); format: cell-based; settings: Homo sapiens, ASPC1, 2 h, read-out: IC50, ERK phosphorylation inhibition
Method: The ERK phosphorylation inhibitory activities of subject compounds were evaluated by measuring phosphorylation of the 202th threonine (Thr202) and the 204th tyrosine (Tyr204) of ERK located downstream of the KRAS signal by cell ELISA.
AsPC-1 cells (ATCC, CRL-1682) were seeded at 36 μL/well on a 384-well plate (from Greiner bio-one) to give 2.0×10^4 cells per well. As for the cell culture conditions, RPMI-1640 medium (from Sigma-Aldrich) containing 10% fetal bovine serum (from GE Life Sciences) was used in the presence of 5% CO2 at 37° C.
The next day, the subject compounds (6 points having final concentrations in the range of 10 μM to 0.3 nM), trametinib (MEK inhibitor) of a final concentration of 1 μM as a positive control and DMSO, which was the solvent for the subject compounds, as a negative control were diluted 100-fold with a fresh medium and were each added at 4 μL per well, followed by culturing for 2 hours. After culturing, a 30% glyoxal solution (40% glyoxal [from Wako] was diluted with Phosphate Buffered Saline [PBS; from Wako) was quickly added at 30 μL per well, and the plate was allowed to stand for an hour at room temperature to thus immobilize the cells. Then, the plate was centrifuged (110× g, seven seconds, hereinafter centrifugation was performed under the same conditions unless otherwise specified) to remove the supernatant, and 0.1% Triton X-100 (from Amersham Biosciences)—containing PBS was added at 20 μL per well. After allowing the plate to stand for 10 minutes at room temperature, the supernatant was removed by centrifugation, and the same operation was further repeated. Next, 0.5% sodium dodecyl sulfate (SDS; from Invitrogen)-containing PBS was added at 20 μL per well. The plate was allowed to stand at room temperature for 30 minutes and was then centrifuged to remove the supernatant. Subsequently, a blocking solution (Intercept Blocking Buffer; from LI-COR Biosciences) was added at 20 μL per well, and the plate was allowed to stand for an hour at room temperature. The supernatant was removed by centrifugation, and an ERK (Thr202/Tyr204) phosphorylation antibody (Phospho-p44/42 MAPK (Erk 1/2) (Thr202/Tyr204) (D13.14.4E) XP Rabbit mAb; from Cell Signaling Technology) diluted 2,500-fold with the blocking solution was added at 10 μL per well as a primary antibody. The plate was allowed to stand at 4° C. overnight.
The next day, the plate was centrifuged to remove the supernatant, and 0.05% Tween-20-containing PBS (from Thermo Scientific; 20× PBS Tween-20 was diluted 20-fold with ion exchange water and used) was added at 20 μL per well. The supernatant was removed by centrifugation to thus wash each well. The washing was performed three times in total. After washing, an IRDye 800CW Goat anti-Rabbit IgG (from LI-COR Biosciences) diluted 1,000-fold with the blocking solution was added at 10 μL per well as a secondary antibody, and the plate was allowed to stand for an hour at room temperature. The plate was centrifuged to remove the supernatant, and each well was washed three times with 0.05% Tween-20-containing PBS in the same manner as after the primary antibody reaction. Centrifugation after the third washing was performed at 171×g for 17 seconds. After removing the supernatant, the plate was dried as it was with air at room temperature for three hours or more, and the 800-nm fluorescent signals were measured with Aerius (from LI-COR Biosciences).
With the signaling value at the time of addition of DMSO taken as 0% inhibition and with the signaling value at the time of addition of […] trametinib taken as 100% inhibition, the 50% inhibition values (IC50) were calculated by Sigmoid-Emax model nonlinear regression analysis.

Sequence of KRAS G12D/SOS/c-Raf complex (P01116 other isoform, or with tags, fused parts or gaps G12D): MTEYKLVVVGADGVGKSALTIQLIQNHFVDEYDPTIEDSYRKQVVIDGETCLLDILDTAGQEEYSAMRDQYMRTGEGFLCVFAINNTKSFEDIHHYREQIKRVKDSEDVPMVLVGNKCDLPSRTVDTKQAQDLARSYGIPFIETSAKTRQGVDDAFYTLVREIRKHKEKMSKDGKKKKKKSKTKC

Compound	IC50 [1] [nM]	IC50 [2] [nM]	IC50 [3] [nM]
Cc1c(F)cc2[nH]ncc2c1-c1c(C2CC2)cc2c(N3C[C@@H]4C[C@H]3CN4)nc(OC3CCOCC3)nc2c1OCc1ccc(Cc2ncn(C3CC3)n2)cc1 [Example 14, 6-cyclopropyl-8-({4-[(1-cyclopropyl-1H-1,2,4-triazol-3-yl)methyl]phenyl}methoxy)-4-[(1 S,4S)-2,5-diazabicyclo[2.2.1]heptan-2-yl]-7-(6-fluoro-5-methyl-1H-indazol-4-yl)-2-[(oxan-4-yl)oxy]quinazoline]	154	143	42
Cc1c(F)cc2[nH]ncc2c1-c1c(C2CC2)cc2c(N3C[C@@H]4C[C@H]3CN4)nc(OC3CCOCC3)nc2c1OCc1ccc(Cc2nnn(C)n2)cc1 [Example 16, 6-cyclopropyl-4-[(1S,4S)-2,5-diazabicyclo[2.2.1]heptan-2-yl]-7-(6-fluoro-5-methyl-1H-indazol-4-yl)-8-({4-[(2-methyl-2H-tetrazol-5-yl)methyl]phenyl}methoxy)-2-[(oxan-4-yl)oxy]quinazoline]	216	226	93
